The text below walks through data of US20260250640A1, “NOVEL COMPOSITIONS AND THEIR USE TO INCREASE MOTILITY, VIABILITY AND LIFESPAN OF SPERM CELLS AND FERTILITY” (IMV TECHNOLOGIES, priority 2023, published 2026).

The test system of this data set is bull semen. Here is the method: • a 2.4 mM BaCl2 solution in OptiXcell was prepared, • 1 mL of this solution was resuspended in a 5 mg vial of DMNP-EDTA, • 1.5 mL of DMNP-EDTA were added for a final DMNP-EDTA concentration of 2.6 mM, • The solution was kept away from light, • The solution was contacted with semen in different chelator/semen ratios: • 1:1=>500 μL chelators+500 μL bull semen at 57 Mspz/mL • 1:0.75=>500 μL chelators+375 μL bull semen at 57 Mspz/mL • 1:0.5=>500 μL chelators+250 μL bull semen at 57 Mspz/mL • 1:0.25=>500 μL chelators+125 μL bull semen at 57 Mspz/mL • A BaCl2 solution only: 500 μL BaCl2 at 2.4 mM+500 μL bull semen at 57 Mspz/mL was prepared • The following analyses have been performed on frozen bull semen: • Mobility analysis on IVOS II™ at T=0 and T3H 37° C., • Acrosome integrity analysis on EasyCyte at T=0 and T3H 37° C., • Viability analysis on EasyCyte at T=0 and T3H 37° C. • Mitochondrial activity analysis on EasyCyte at T=0 and T3H 37° C.
The control corresponds to OptiXcell alone.

On to `COc1cc(C(CN(CC(=O)O)CC(=O)O)N(CC(=O)O)CC(=O)O)c([N+](=O)[O-])cc1OC` (stereo not drawn) [chelator, DMNP-EDTA], for which the impact on viability entry is “No major impact” and the “sperm viability, difference vs. Control” value is given as “+13 pts”. Further, the impact on mobility result (T0 and T3H 37° C., conclusion) is reported as “No major impact”. For the same compound, the “sperm motility, difference vs control (OptiXcell alone)” value (T=3H 37° C., 1/1 chelator/semen) is “+9 pts”. Besides, for the setting “presence of chelator (BaCl2/DMNP-EDTA solution in OptiXcell), T=0 and T3H 37° C.”, the sperm motility result is “not affected”.

For `[Ba+2].[Cl-].[Cl-]` [BaCl2], the sperm viability entry (T=3H 37° C.) is listed as “remained unchanged”.
